Entries after “also recorded” stand apart in the source; their conditions may differ. Like-named read-outs stand apart in the source and are kept apart here.
Legend:
hNav1.5 = target: T1, hNav1.5 (Homo sapiens, UniProt Q14524); experiment: Whole-cell patch-clamp of sodium currents in Nav1.5-transfected HEK293 cells; format: cell-based; conditions: FIG. 4D, E
T1 construct: expressed in transfected cells; host or cells: HEK293 (ATCC), transient transfection with Lipofectamine 2000
Method: HEK-hNav1.7 stable cell line was purchased from SB Drug Discovery (Glasgow, United Kingdom). Human embryonic kidney 293 (HEK293) cells were obtained from the ATCC and maintained at the Duke cell culture facility. Cells were cultured in high-glucose (4.5 g/L) DMEM containing 10% (v/v) FBS (Gibco) and streptomycin/penicillin. For Nav1.7-expressing HEK293 cells, an additional antibiotic, blasticidin, was included. hNav1.5 transfection was performed by Lipofectamine 2000 at 70% confluence using 2 μg cDNA. The transfected cells were cultured in the same growth medium for 48 h before biochemical or electrophysiological studies.
Whole-cell patch-clamp recordings were conducted at room temperature. Patch pipettes pulled from borosilicate capillaries (World Precision Instruments, Inc., Sarasota, FL) were used to record transient Na currents with an Axopatch-200B amplifier with a Digidata 1440A (Axon Instruments, Sunnyvale CA). The resistance was set to 3-4 MΩ when filled with pipette solution. The pipette solution contained (in mmol/L): CsCl 130, NaCl 9, MgCl2 1, EGTA 10, HEPES 10, adjusted to pH 7.3 with CsOH. The external solution for recording transient Na^+ currents contained (in mmol/L): NaCl 131, TEACl 10, CsCl 10, CaCl2) 1, MgCl2 2, CdCl2 0.3, 4-aminopyridine 3, HEPES 10, glucose 10, adjusted to pH 7.4 with NaOH. The recording chamber (300 μL) was continuously superfused at 3-4 mL/min. […]

[1] = tested on: mouse dorsal root ganglion (DRG) neurons; experiment: Patch-clamp of transient sodium currents in mouse DRG neurons (naive and paclitaxel-pretreated); format: cell-based; conditions: for inhibition at 10 µM: Mus musculus, DRG neuron
Method: Mouse DRGs were removed aseptically from mice (4-6 weeks) and incubated with collagenase (1.25 mg/mL, Roche)/dispase-II (2.4 units/mL, Roche) in HBSS buffer at 37° C. for 90 min. Cells were mechanically dissociated with a flame polished Pasteur pipette in the presence of 0.05% DNAse I (Sigma). DRG cells were plated on 0.5 mg/mL poly-D-lysine-coated glass cover slips and grown in a neurobasal defined medium (with 10% FBS, 2% B27 supplement, Invitrogen) with 5 μM AraC and 5% carbon dioxide at 36.5° C. DRG neurons were grown for 24 hours before use. Patch clamp recordings were conducted in small-diameter (<25 μm) DRG neurons.
Whole-cell patch-clamp recordings were conducted at room temperature. Patch pipettes pulled from borosilicate capillaries (World Precision Instruments, Inc., Sarasota, FL) were used to record transient Na currents with an Axopatch-200B amplifier with a Digidata 1440A (Axon Instruments, Sunnyvale CA). The resistance was set to 3-4 MΩ when filled with pipette solution. The pipette solution contained (in mmol/L): CsCl 130, NaCl 9, MgCl2 1, EGTA 10, HEPES 10, adjusted to pH 7.3 with CsOH. The external solution for recording transient Na^+ currents contained (in mmol/L): NaCl 131, TEACl 10, CsCl 10, CaCl2) 1, MgCl2 2, CdCl2 0.3, 4-aminopyridine 3, HEPES 10, glucose 10, adjusted to pH 7.4 with NaOH. The recording chamber (300 μL) was continuously superfused at 3-4 mL/min. Series resistance was compensated (>80%) and leak subtraction was performed. Data were low-pass-filtered at 2 kHz and sampled at 10 kHz. pClamp10 (Axon Instruments) software was used during experiments and analysis. In voltage-clamp experiments, transient Na+ currents were evoked by a test pulse to 0 mV from the holding potential (−70 mV).

[2] = tested on: human dorsal root ganglion (DRG) neurons; experiment: Patch-clamp of transient sodium currents in human DRG neurons; format: cell-based
Method: Non-diseased human DRGs were obtained from donors through NDRI with permission of exemption from Duke IRB. Postmortem L3-L5 DRGs were dissected and delivered in ice-cold culture medium to the laboratory at Duke University within 24-72 hours of donor's death. Upon the delivery, DRGs were rapidly dissected from nerve roots and minced in a calcium-free HBSS (Gibco). DRGs were digested at 37° C. in a humidified 02 incubator for 120 min with collagenase Type II (Worthington, 285 units/mg, 12 mg/mL final concentration) and dispase II (Roche, 1 unit/mg, 20 mg/mL) in HBSS buffer. DRGs were mechanically dissociated using fire-polished pipettes, filtered through a […] nylon mesh and centrifuged (500×g for 5 min). The pellet was resuspended, plated on 0.5 mg/mL poly-D-lysine-coated glass coverslips, and cells were grown in Neurobasal medium supplemented with 10% FBS, 2% B-27 supplement, and 1% penicillin/streptomycin. Patch clamp recordings were conducted in small-diameter (<55 μm) DRG neurons (PMID: 26479925).
Whole-cell patch-clamp recordings were conducted at room temperature. Patch pipettes pulled from borosilicate capillaries (World Precision Instruments, Inc., Sarasota, FL) were used to record transient Na currents with an Axopatch-200B amplifier with a Digidata 1440A (Axon Instruments, Sunnyvale CA). The resistance was set to 3-4 MΩ when filled with pipette solution. […]

[3] = tested on: paclitaxel-induced mechanical allodynia; experiment: Paclitaxel-induced neuropathic pain model (von Frey); format: in vivo, mouse; conditions: for effect on paclitaxel-induced mechanical allodynia: mice
Method: Intraperitoneal injection of paclitaxel (PTX, 2 mg/kg for multiple injections at day 0, 2, 4, and 6) was given to generate chemotherapy-associated neuropathic pain. Neuropathic pain behavior was tested 3 weeks after PTX injection using a von Frey test. Briefly, animals were habituated to the testing environment daily for at least 2 days before the baseline testing. Animals were confined in boxes placed on an elevated metal mesh floor and the hind paws were stimulated with a series of von Frey hairs with logarithmically increasing stiffness (0.02-2.56 g, Stoelting), presented perpendicularly to the central plantar surface. The 50% paw withdrawal threshold was determined by an up-down method.

[4] = tested on: histamine-induced acute itch; experiment: Histamine-induced itch model; format: in vivo, mouse; conditions: listed as DA-0218
Method: Itch behavior was tested blindly. Mice were habituated to the testing environment daily for at least two days before testing. Animals were shaved at the back of the neck in an area of approximately 15×10 mm on the day before the injection of pruritic agent. Animals were put in small plastic chambers (14×18×12 cm) on an elevated metal mesh floor and allowed 30 min for habituation before examination. Mice were then briefly removed from the chamber and given an intradermal injection (50 μL) of 500 μg of histamine in the nape of the neck. After the injection, mouse behaviors were video-recorded and the number of scratches in every 5 min for 30 min was counted. A scratch was counted when a mouse lifted its hindpaw to scratch the shaved region and returned the paw to the floor or to the mouth.

[5] = tested on: lymphoma-induced chronic itch; experiment: Mouse CTCL xenograft model of chronic itch; format: in vivo
Method: We used a murine xenograft model of cutaneous T cell lymphoma (CTCL) using immune-deficient mice (NOD.CB17-Prkdcscid, 8-10 weeks old, male). CD4+ MyLa cell line was purchased from Sigma (Catalog #95051032). The cell line was established from a plaque biopsy of a person with mycosis fungoides stage II by inclusion of IL-2 and IL-4 in the culture medium. CTCL was generated via intradermal injection of CD4+ Myla cells (1×10^5 cells/μL, 100 μL) on the nape of the neck. Itch behavior was tested on Day 50 after inoculation of CTCL cells.

T1 sequence (Q14524 whole entry): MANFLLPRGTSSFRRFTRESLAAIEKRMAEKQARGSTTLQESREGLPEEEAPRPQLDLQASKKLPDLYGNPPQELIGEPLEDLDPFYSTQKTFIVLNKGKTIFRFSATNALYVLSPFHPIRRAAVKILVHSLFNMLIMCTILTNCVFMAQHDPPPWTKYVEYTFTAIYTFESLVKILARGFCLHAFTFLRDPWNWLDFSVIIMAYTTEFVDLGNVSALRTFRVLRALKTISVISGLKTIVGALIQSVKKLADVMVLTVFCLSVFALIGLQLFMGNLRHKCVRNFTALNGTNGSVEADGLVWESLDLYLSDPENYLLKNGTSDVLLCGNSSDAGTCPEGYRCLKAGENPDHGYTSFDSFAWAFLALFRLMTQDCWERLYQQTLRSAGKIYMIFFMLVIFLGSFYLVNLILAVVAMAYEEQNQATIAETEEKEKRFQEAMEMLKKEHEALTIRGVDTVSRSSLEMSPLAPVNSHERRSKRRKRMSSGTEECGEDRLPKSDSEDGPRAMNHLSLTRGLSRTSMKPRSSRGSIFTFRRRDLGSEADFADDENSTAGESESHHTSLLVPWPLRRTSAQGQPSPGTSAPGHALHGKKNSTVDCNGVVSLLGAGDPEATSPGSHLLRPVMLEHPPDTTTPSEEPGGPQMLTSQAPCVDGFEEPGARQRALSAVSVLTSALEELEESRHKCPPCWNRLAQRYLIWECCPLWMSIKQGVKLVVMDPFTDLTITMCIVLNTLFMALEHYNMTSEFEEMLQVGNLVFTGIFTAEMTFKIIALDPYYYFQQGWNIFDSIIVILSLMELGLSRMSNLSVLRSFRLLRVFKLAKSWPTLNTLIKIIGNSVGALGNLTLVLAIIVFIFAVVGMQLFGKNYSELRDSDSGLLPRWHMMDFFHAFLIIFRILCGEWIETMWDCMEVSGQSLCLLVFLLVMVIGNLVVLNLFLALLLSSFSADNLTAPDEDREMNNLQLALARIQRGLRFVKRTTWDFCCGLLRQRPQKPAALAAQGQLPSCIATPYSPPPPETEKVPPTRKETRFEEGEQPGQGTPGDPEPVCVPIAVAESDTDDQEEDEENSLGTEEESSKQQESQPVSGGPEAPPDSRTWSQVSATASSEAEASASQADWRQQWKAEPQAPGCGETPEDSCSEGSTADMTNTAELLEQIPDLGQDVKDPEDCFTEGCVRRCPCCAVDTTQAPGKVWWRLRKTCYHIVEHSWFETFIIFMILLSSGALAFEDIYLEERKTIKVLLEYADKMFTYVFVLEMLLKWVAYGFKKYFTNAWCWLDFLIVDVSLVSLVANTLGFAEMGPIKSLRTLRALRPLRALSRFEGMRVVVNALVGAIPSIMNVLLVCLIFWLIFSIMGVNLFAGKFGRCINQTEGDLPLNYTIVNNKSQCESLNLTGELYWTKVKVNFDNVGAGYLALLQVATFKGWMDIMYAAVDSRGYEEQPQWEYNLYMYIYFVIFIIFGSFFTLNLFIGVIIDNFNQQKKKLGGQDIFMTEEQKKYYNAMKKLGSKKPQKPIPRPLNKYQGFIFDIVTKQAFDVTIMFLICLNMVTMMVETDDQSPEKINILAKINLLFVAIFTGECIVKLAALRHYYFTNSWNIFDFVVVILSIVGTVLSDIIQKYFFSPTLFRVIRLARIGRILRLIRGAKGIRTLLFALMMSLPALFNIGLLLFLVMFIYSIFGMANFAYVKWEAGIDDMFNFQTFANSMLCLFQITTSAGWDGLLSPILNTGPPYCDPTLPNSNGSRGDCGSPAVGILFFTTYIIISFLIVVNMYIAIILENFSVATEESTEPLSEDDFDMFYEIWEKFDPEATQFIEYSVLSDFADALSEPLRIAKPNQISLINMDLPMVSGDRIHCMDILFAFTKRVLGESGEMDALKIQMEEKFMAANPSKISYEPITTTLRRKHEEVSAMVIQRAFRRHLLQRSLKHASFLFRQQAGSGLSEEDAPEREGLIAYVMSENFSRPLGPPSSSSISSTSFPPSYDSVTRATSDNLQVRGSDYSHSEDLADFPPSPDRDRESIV

For `O=C(CC(c1cccc(Oc2ccccc2)c1)c1cn(Cc2ccccc2)c2ccccc12)NCCN1CCCC1` (centres unmarked) [Compound 9, 3-(1-benzyl-1H-indol-3-yl)-3-(3-phenoxyphenyl)-N-(2-(pyrrolidin-1-yl)ethyl)propanamide], the “effect on sodium currents in Nav1.5-expressing HEK293 cells” value (hNav1.5) was “no effects”, the “effect on sodium currents in Nav1.5-expressing HEK293 cells” value (hNav1.5; listed as DA-0218) was “no effect” and the “time to peak inhibition after the drug incubation” value ([1]; 10 μM, mouse DRG neurons) was 10 min. For the same compound, the inhibition at 10 µM ([1]; 10 μM, naive (non-treated) mouse DRG neurons, read-out: inhibition of peak INaT (sodium currents)) was 17%, the inhibition at 10 µM ([1]; 10 μM, paclitaxel pretreated mouse DRG neurons, read-out: inhibition of sodium currents) was 44% and the “mean relative current at the last measurement” value (“mean relative current” for short) ([1]; mouse DRG neurons, naive) was 72 % of the baseline. For the same compound, the “mean relative current” value ([1]; mouse DRG neurons, paclitaxel-treated) was 43 % of the baseline, the “mean relative current” value [2] was 73 % of the baseline and the “relative current difference (inhibition of peak INaT)” value ([2]; 10 uM) was 0.22. For the same compound, the “effect on paclitaxel-induced mechanical allodynia” value ([3]; intraperitoneal 30 mg/kg, listed as DA-0218) was “no effect on allodynia; also recorded: did not produce any anti-allodynia effects”, the “effect duration, chronic pain” value ([3]; intrathecal, paclitaxel model) was 3 h and the “effect on paclitaxel-induced mechanical allodynia” value ([3]; intrathecal, single injection, listed as DA-0218) was “acute reduction; also recorded: transiently but completely reversed; also recorded: statistically significant anti-allodynia effects”. The “analgesic effect after repeated intrathecal injections (2nd and 3rd injection)” value ([3]; tested one hour after each injection, paclitaxel model, listed as DA-0218) was “did not produce any analgesic effect; also recorded: induced acute tolerance”, the “effect on histamine-induced scratches” value ([4]; intrathecal 30 nmol, 500 μg histamine intradermal, 30 min) was “statistically significant reduction; also recorded: effective against histamine-induced itch” and the “effect on histamine-induced scratch bouts” value ([4]; intrathecal, dose response) was “inhibited histamine-induced acute itch; also recorded: dose-dependent reduction”. The “effect duration, chronic itch” value ([5]; intrathecal) was greater than 5 h and the “effect on lymphoma-induced chronic itch (scratch)” value ([5]; intrathecal 30 nmol, Day 50 after CTCL inoculation, listed as DA-0218) was “inhibited; also recorded: significant reduction of scratch; also recorded: effective against lymphoma-induced itch”.
